Measurements reported in patent US20250154686A1, “COMPOUND LIBRARY” (CHUGAI SEIYAKU KABUSHIKI KAISHA, priority 2021, published 2025).

Target: T1, Bcl-2 protein (Recombinant Human Bcl-2 Protein) (Homo sapiens, UniProt P10415)
T1 construct: purchased Novus Biologicals NBP2-34889
Test: AS-MS evaluation of binding of the Example 4 mixture library (1200 compounds/well) to Bcl-2, ASMS ratio (%)
Details: AS-MS, Example 4 mixture library; for ASMS ratio (%) n = 1: Bcl-2, replicate n = 1; for ASMS ratio (%) n = 2: Bcl-2, replicate n = 2
How it was run: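 Affinity-selection MS: 1200 cpds/well, 20 nM each; hBcl-2 20 μM; 25 mM Tris pH 7.4/150 mM NaCl/0.025% Tween-20/1 mM DTT; 1 h, 23 °C, dark; P-2 size-exclusion spin, MeCN:MeOH 1:1 extraction; RP LC/MS; ratio vs no-protein STD and SEC blank.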

T1 sequence (P10415 whole entry): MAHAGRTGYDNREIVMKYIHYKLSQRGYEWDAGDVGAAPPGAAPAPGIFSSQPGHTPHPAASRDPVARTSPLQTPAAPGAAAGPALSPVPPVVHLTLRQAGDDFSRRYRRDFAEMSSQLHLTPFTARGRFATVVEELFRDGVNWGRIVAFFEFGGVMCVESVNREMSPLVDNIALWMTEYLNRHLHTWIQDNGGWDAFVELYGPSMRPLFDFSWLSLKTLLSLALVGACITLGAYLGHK

SMILES | ASMS ratio (%) n = 1 | ASMS ratio (%) n = 2
CCOc1cncc(-c2csc(C(=O)N3CCN(c4ccc(C(=O)NS(=O)(=O)CCC(F)(F)F)cc4)CC3)c2)c1 [Compound B2N024-01, 4-[4-[4-(5-Ethoxypyridin-3-yl)thiophene-2-carbonyl]piperazin-1-yl]-N-(3,3,3-trifluoropropylsulfonyl)benzamide] | 0.0% | 0.0%
CCOc1cccc(-c2ccc(C(=O)N3CCN(c4ccc(C(=O)NS(=O)(=O)CCC(F)(F)F)cc4)CC3)cc2C)c1 [Compound B2N025-01, 4-[4-[4-(3-Ethoxyphenyl)-3-methylbenzoyl]piperazin-1-yl]-N-(3,3,3-trifluoropropylsulfonyl)benzamide] | 0.0% | 0.0%
CCOc1cncc(-c2ccc(C(=O)N3CCN(c4ccc(C(=O)NS(=O)(=O)CCC(F)(F)F)cc4)CC3)cc2C)c1 [Compound B2N026-01, 4-[4-[4-(5-Ethoxypyridin-3-yl)-3-methylbenzoyl]piperazin-1-yl]-N-(3,3,3-trifluoropropylsulfonyl)benzamide] | −1.5% | −0.7%
CCOc1cncc(-c2ccc(C(=O)N3CCN(c4ccc(C(=O)NS(=O)(=O)CCC(F)(F)F)cc4)CC3)cc2F)c1 [Compound B2N028-01, 4-[4-[4-(5-Ethoxypyridin-3-yl)-3-fluorobenzoyl]piperazin-1-yl]-N-(3,3,3-trifluoropropylsulfonyl)benzamide] | −0.7% | −0.9%
CCOc1cncc(C#Cc2ccccc2C(=O)N2CCN(c3ccc(C(=O)NS(=O)(=O)CCC(F)(F)F)cc3)CC2)c1 [Compound B2N030-01, 4-[4-[2-[2-(5-Ethoxypyridin-3-yl)ethynyl]benzoyl]piperazin-1-yl]-N-(3,3,3-trifluoropropylsulfonyl)benzamide] | 0.0% | 0.0%
CCOc1cccc(C#Cc2cncc(C(=O)N3CCN(c4ccc(C(=O)NS(=O)(=O)CCC(F)(F)F)cc4)CC3)c2)c1 [Compound B2N031-01, 4-[4-[5-[2-(3-Ethoxyphenyl)ethynyl]pyridine-3-carbonyl]piperazin-1-yl]-N-(3,3,3-trifluoropropylsulfonyl)benzamide] | 0.0% | 0.0%
CCOc1cncc(C#Cc2cncc(C(=O)N3CCN(c4ccc(C(=O)NS(=O)(=O)CCC(F)(F)F)cc4)CC3)c2)c1 [Compound B2N032-01, 4-[4-[5-[2-(5-Ethoxypyridin-3-yl)ethynyl]pyridine-3-carbonyl]piperazin-1-yl]-N-(3,3,3-trifluoropropylsulfonyl)benzamide] | −0.4% | −1.0%
CCOc1cccc(-c2ccccc2CCC(=O)N2CCN(c3ccc(C(=O)NS(=O)(=O)CCC(F)(F)F)cc3)CC2)c1 [Compound B2N033-01, 4-[4-[3-[2-(3-Ethoxyphenyl)phenyl]propanoyl]piperazin-1-yl]-N-(3,3,3-trifluoropropylsulfonyl)benzamide] | 0.0% | 0.0%
CCOc1cncc(-c2ccccc2CCC(=O)N2CCN(c3ccc(C(=O)NS(=O)(=O)CCC(F)(F)F)cc3)CC2)c1 [Compound B2N034-01, 4-[4-[3-[2-(5-Ethoxypyridin-3-yl)phenyl]propanoyl]piperazin-1-yl]-N-(3,3,3-trifluoropropylsulfonyl)benzamide] | −0.2% | 1.0%
CCOc1cccc(-c2ccc(C(=O)N3CCN(c4ccc(C(=O)NS(=O)(=O)CCC(F)(F)F)cc4)CC3)c3ccccc23)c1 [Compound B2N035-01, 4-[4-[4-(3-Ethoxyphenyl)naphthalene-1-carbonyl]piperazin-1-yl]-N-(3,3,3-trifluoropropylsulfonyl)benzamide] | 0.0% | 0.0%
